Measured values as given in patent US11214803B2, “Modulators of YAP1 expression” (Ionis Pharmaceuticals, Inc., priority 2019, dated 2022).
Strand notation (5' to 3'): a small letter for the sugar, then the base; units joined by * are phosphorothioate-linked, units joined directly phosphodiester-linked; [ ] holds rarer units or linkages, { } end groups; capitals alone tell only the bases. k = constrained ethyl (cEt); [5mC] = 5-methylcytosine; d = 2'-deoxy (DNA)

Test system: Yap1 mRNA
Assay: Antisense inhibition of human Yap1 in A-431 cells by cEt gapmers, single dose (Example 2, RTS4814)
Type: cell-based
How it was run: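 A-431 cells (5,000/well) received 2,000 nM oligonucleotide by free uptake for about 48 h. Yap1 mRNA was then quantified by RT-qPCR with primer probe set RTS4814, normalized to RIBOGREEN total RNA, and reported as % of untreated control; asterisked values mark oligos inside the amplicon.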

[1] = Table 22, Yap1 mRNA as percent of untreated control, 3-10-3 cEt gapmers, single dose
[2] = Table 24, Yap1 mRNA as percent of untreated control, 3-10-3 cEt gapmers targeting SEQ ID NO.: 1, and 2
[3] = Table 32, Yap1 mRNA, percent of untreated control, 3-10-3 cEt gapmers targeting SEQ ID NO.: 1, and 2
[4] = Table 33, Yap1 mRNA, percent of untreated control, 3-10-3 cEt gapmers targeting SEQ ID NO.: 1, and 2
[5] = Yap1 mRNA as percent of untreated control, A-431 cells, 3-10-3 cEt gapmers targeting SEQ ID NO.: 1, and 2, Table 30
[6] = Table 18, A-431 cells, 5,000 cells per well, free uptake, 2,000 nM modified oligonucleotide, approx. 48 hours, RTS4814, normalized to RIBOGREEN, Yap1 mRNA as percent of untreated control
[7] = Table 21, Yap1 mRNA, percent of untreated control, 3-10-3 cEt gapmers targeting SEQ ID NO.: 1 and 2
[8] = Table 19, A-431 cells, 5,000 cells per well, free uptake, 2,000 nM modified oligonucleotide, approx. 48 hours, RTS4814, normalized to RIBOGREEN, Yap1 mRNA as percent of untreated control
[9] = Table 5, A-431 cells, 5,000 cells per well, free uptake, 2,000 nM modified oligonucleotide, approx. 48 hours, RTS4814, normalized to RIBOGREEN, Yap1 mRNA relative to untreated control cells
[10] = Table 6, A-431 cells, 5,000 cells per well, free uptake, 2,000 nM modified oligonucleotide, approx. 48 hours, RTS4814, normalized to RIBOGREEN, Yap1 mRNA relative to untreated control cells
[11] = A-431 cells, 5,000 cells per well, free uptake, 2,000 nM modified oligonucleotide, approx. 48 hours, RTS4814, normalized to RIBOGREEN, Table 4, asterisk (*) = targets amplicon region of primer probe set

With “1076520 (antisense kA*kA*kT*dT*dA*dT*dA*dT*dG*d[5mC]*dA*dG*d[5mC]*kA*kG*k[5mC]) [Compound 1076520]” the “YAP1 (% UTC)” value [1] was 21 % UTC.
In the case of “1075050 (antisense kA*k[5mC]*k[5mC]*d[5mC]*dA*dA*d[5mC]*dG*dG*dT*d[5mC]*dA*dT*kG*kT*kT) [Compound 1075050]”, the “YAP1 (% UTC)” value [2] is reported as 94 % UTC.
In the case of “1075922 (antisense kG*k[5mC]*k[5mC]*d[5mC]*dA*dA*dA*dA*dT*dA*dG*dG*dA*kT*kA*k[5mC]) [compound 1075922]”, the “YAP1 (% UTC)” value [3] is reported as 60 % UTC.
With “1075603 (antisense kT*kA*kT*dG*dA*dA*d[5mC]*dA*dA*dG*dT*dA*dT*kG*kA*kG) [compound 1075603]” the “YAP1 (% UTC)” value [4] was 35 % UTC.
With “1075280 (antisense kG*kA*kA*d[5mC]*dT*dA*dT*dA*d[5mC]*dT*dA*dA*d[5mC]*kA*kT*kT) [compound 1075280]” the “YAP1 (% UTC)” value [5] was 57 % UTC.
With “1076074 (k[5mC]*kT*kA*dA*dT*dT*dA*dG*d[5mC]*dT*dT*dT*d[5mC]*kA*kG*k[5mC]; antisense) [Compound 1076074]” the “YAP1 (% UTC)” value [2] was 92 % UTC.
In the case of “1076164 (kT*kG*kA*dT*dA*dT*dA*dA*dG*dT*dT*dA*d[5mC]*k[5mC]*kA*kA; antisense) [Compound 1076164]”, the “YAP1 (% UTC)” value [6] is reported as 50 % UTC.
With “1075879 (kG*kA*kA*dT*dA*dA*dA*dG*dA*dA*dG*dT*d[5mC]*kA*k[5mC]*k[5mC]; antisense) [Compound 1075879]” the “YAP1 (% UTC)” value [7] was 77 % UTC.
With “1075397 (antisense k[5mC]*kA*kT*dT*dA*dT*d[5mC]*dG*d[5mC]*dA*d[5mC]*dA*dT*kA*k[5mC]*kA) [Compound 1075397]” the “YAP1 (% UTC)” value [8] was 79 % UTC.
With “1076006 (kT*kT*kT*dA*dA*dA*d[5mC]*d[5mC]*dT*dG*dA*dG*dA*k[5mC]*kT*k[5mC]; antisense) [Compound 1076006]” the “YAP1 (% UTC)” value (Table 20, Yap1 mRNA, percent of untreated control, 3-10-3 cEt gapmers targeting SEQ ID NO.: 1 and 2) was 41 % UTC.
In the case of “1074162 (kA*kG*kG*d[5mC]*dG*dA*dG*d[5mC]*dG*dA*dG*dG*dG*k[5mC]*kT*kA; antisense) [compound 1074162]”, the “YAP1 (% UTC)” value [3] is reported as 101 % UTC.
“716410 (kG*kT*kA*dT*d[5mC]*dA*d[5mC]*d[5mC]*dT*dG*dT*dA*dT*k[5mC]*k[5mC]*kA; antisense) [Compound 716410]” was tested, and the “YAP1 (% UTC)” value [9] was 52 % UTC.
With “1074277 (antisense kG*kT*k[5mC]*dT*dA*dG*d[5mC]*d[5mC]*dA*dA*dG*dA*dG*kG*kT*kG) [Compound 1074277]” the “YAP1 (% UTC)” value [8] was 18 % UTC.
In the case of “1075531 (k[5mC]*kT*kT*dA*dA*dT*dA*dG*dT*dT*dT*dA*dA*k[5mC]*k[5mC]*kT; antisense) [Compound 1075531]”, the “YAP1 (% UTC)” value (Table 25, Yap1 mRNA as percent of untreated control, 3-10-3 cEt gapmers targeting SEQ ID NO.: 1, and 2) is reported as 66 % UTC.
For “1074276 (antisense k[5mC]*k[5mC]*kA*dA*dG*dA*dG*dG*dT*dG*dG*dT*d[5mC]*kT*kT*kG) [Compound 1074276]”, the “YAP1 (% UTC)” value [6] was 87 % UTC.
With “1076421 (kA*kA*kT*dT*dA*dT*dG*dA*d[5mC]*d[5mC]*dT*d[5mC]*d[5mC]*kA*kT*kG; antisense) [Compound 1076421]” the “YAP1 (% UTC)” value [8] was 65 % UTC.
For “1074963 (antisense kT*kA*kG*dG*d[5mC]*dA*dA*dG*d[5mC]*dA*dG*d[5mC]*dT*kA*kA*kA) [compound 1074963]”, the “YAP1 (% UTC)” value [4] was 76 % UTC.
In the case of “716458 (kA*kA*kG*d[5mC]*dA*dG*dG*dG*dA*dA*dA*d[5mC]*d[5mC]*kT*kA*kA; antisense) [Compound 716458]”, the “YAP1 (% UTC)” value [9] is reported as 94 % UTC.
With “1076531 (kA*k[5mC]*kT*dA*dT*dA*dA*dA*dG*dG*dG*dT*dT*kT*kA*kG; antisense) [compound 1076531]” the “YAP1 (% UTC)” value [4] was 66 % UTC.
“1076178 (k[5mC]*k[5mC]*kT*dG*dA*dA*dA*dT*dA*d[5mC]*dA*dG*dG*kT*kG*kT; antisense) [compound 1076178]” was tested, and the “YAP1 (% UTC)” value [3] was 100 % UTC.
“716351 (kG*kG*kT*d[5mC]*dT*dG*dG*d[5mC]*dG*dG*d[5mC]*dT*dG*k[5mC]*kG*k[5mC]; antisense) [Compound 716351]” was tested, and the “YAP1 (% UTC)” value [10] was 112 % UTC.
In the case of “1076522 (antisense kG*k[5mC]*kA*d[5mC]*dT*dA*dA*dA*dG*dG*dA*dG*dT*k[5mC]*kA*kT) [Compound 1076522]”, the “YAP1 (% UTC)” value [2] is reported as 35 % UTC.
For “716506 (antisense kT*k[5mC]*kT*dG*d[5mC]*dA*dG*dT*dG*dG*d[5mC]*d[5mC]*dA*kT*kT*kT) [Compound 716506]”, the “YAP1 (% UTC)” value [9] was 62 % UTC.
In the case of “1074693 (antisense k[5mC]*k[5mC]*k[5mC]*d[5mC]*d[5mC]*d[5mC]*d[5mC]*d[5mC]*dA*dA*dA*d[5mC]*dT*kT*kT*k[5mC]) [Compound 1074693]”, the “YAP1 (% UTC)” value [8] is reported as 92 % UTC.
“1076338 (antisense k[5mC]*kA*kT*dT*dA*dA*dA*d[5mC]*d[5mC]*dA*dG*dG*dG*kA*k[5mC]*kT) [compound 1076338]” was tested, and the “YAP1 (% UTC)” value [3] was 33 % UTC.
For “1075624 (kA*kT*k[5mC]*dT*dA*dT*dA*dA*d[5mC]*d[5mC]*d[5mC]*dT*dT*kA*kT*kT; antisense) [Compound 1075624]”, the “YAP1 (% UTC)” value [1] was 91 % UTC.
In the case of “716478 (kT*kA*kT*dT*dT*dT*dA*dA*dT*d[5mC]*dT*dA*dG*kT*k[5mC]*kG; antisense) [Compound 716478]”, the “YAP1 (% UTC)” value [11] is reported as 46 % UTC.
In the case of “1076489 (antisense k[5mC]*kA*kA*dA*dA*dT*dA*dG*dG*dT*dG*dA*dG*kT*k[5mC]*kA) [Compound 1076489]”, the “YAP1 (% UTC)” value (Table 23, Yap1 mRNA as percent of untreated control, 3-10-3 cEt gapmers, single dose) is reported as 2 % UTC.
In the case of “1075728 (k[5mC]*kT*kT*dT*dA*dT*d[5mC]*dG*dG*dA*dG*dG*d[5mC]*kT*kT*k[5mC]; antisense) [compound 1075728]”, the “YAP1 (% UTC)” value [5] is reported as 15 % UTC.
With “716450 (kA*kA*k[5mC]*dA*dG*dA*dT*dT*d[5mC]*dA*d[5mC]*dT*dA*kA*kT*kA; antisense) [Compound 716450]” the “YAP1 (% UTC)” value [10] was 83 % UTC.
With “716523 (antisense k[5mC]*kA*kA*dA*dT*dT*dA*dA*dA*dG*dT*dT*dG*kA*kG*kG) [Compound 716523]” the “YAP1 (% UTC)” value [11] was 37 % UTC.
In the case of “1074855 (antisense kG*kT*kG*d[5mC]*dA*dT*dT*dA*dA*dA*dG*dA*dA*kT*kT*k[5mC]) [Compound 1074855]”, the “YAP1 (% UTC)” value [7] is reported as 29 % UTC.
With “1074629 (antisense kG*kA*kG*dA*dT*dT*dT*dT*dA*dT*dG*d[5mC]*d[5mC]*kT*kG*kT) [Compound 1074629]” the “YAP1 (% UTC)” value [8] was 3 % UTC.
With “1075409 (antisense k[5mC]*kT*kT*dT*dA*dA*dA*dT*dA*dG*d[5mC]*dA*dG*kA*kG*kG) [compound 1075409]” the “YAP1 (% UTC)” value (Yap1 mRNA as percent of untreated control, A-431 cells, 3-10-3 cEt gapmers targeting SEQ ID NO.: 1, and 2, Table 31) was 22 % UTC.
In the case of “1075530 (kG*kA*kA*dA*dT*d[5mC]*dG*dA*dA*dG*dG*dG*d[5mC]*kA*kA*kA; antisense) [Compound 1075530]”, the “YAP1 (% UTC)” value [2] is reported as 30 % UTC.
In the case of “1075056 (antisense k[5mC]*kT*kT*dT*dA*dT*dT*dA*dT*d[5mC]*dT*d[5mC]*dA*kA*k[5mC]*k[5mC]) [compound 1075056]”, the “YAP1 (% UTC)” value [5] is reported as 21 % UTC.
“716365 (kT*k[5mC]*kT*dG*dA*dT*dG*d[5mC]*d[5mC]*d[5mC]*dG*dG*d[5mC]*kG*kG*kG; antisense) [Compound 716365]” was tested, and the “YAP1 (% UTC)” value [9] was 83 % UTC.
